For 27 compounds, IC50 and Kd results are on record in US20240025906A1 (NEURON23, INC., priority 2022, published 2024).

In test [1] the test system is JAK1/TYK2 pSTAT5 (Tyr694/699) in THP-1 cell line. The test is described as follows: IFNa-stimulated JAK1/TYK2 pSTAT5 (Tyr694/699) inhibition cellular assay, AlphaLISA. Format: cell-based. The conditions noted are these: Homo sapiens; THP-1 cells, IFNa-stimulated, AlphaLISA (Assay B); read-out: Cellular_THP1_IFNa-pSTATS_TYK2. Summed up: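 THP-1 cells (2e4/well in HBSS) were preincubated with compound (8 points, 6-fold steps from 10000 nM final) for 1 h at 37 °C, then stimulated with IFNa (added at 100 ng/mL) for 30 min. Lysate pSTAT5 was read by AlphaLISA at 615 nm. IC50 came from a 4-parameter fit with bottom 0 and Hill −1.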

Another test has as its target T1, TYK2 JH2 (Homo sapiens, UniProt P29597).
T1 construct: purchased DiscoverX (KINOMEscan KdELECT service); host or cells: E. coli BL21-derived (T7 phage display) or HEK-293
The test can be described thus: TYK2 JH2 binding assay (KINOMEscan KdELECT competitive binding). The conditions noted are these: TYK2 JH2 domain, KINOMEscan KdELECT (Assay A); read-out: Biochemical TYK2_DiscoverX_JH2_BND_Kd. The gist of the method: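 JH2-domain fragment, expressed as T7 phage tag in BL21-derived E. coli or DNA-tagged from HEK-293, competed with test compound against bead-immobilized biotinylated ligand in binding buffer (0.9% DMSO). 1 h shaking at room temperature; bound kinase eluted with 0.5 μM free ligand and quantified by qPCR. Kd from 11-point 3-fold dilutions.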

T1 sequence (P29597 589-875 limits assumed): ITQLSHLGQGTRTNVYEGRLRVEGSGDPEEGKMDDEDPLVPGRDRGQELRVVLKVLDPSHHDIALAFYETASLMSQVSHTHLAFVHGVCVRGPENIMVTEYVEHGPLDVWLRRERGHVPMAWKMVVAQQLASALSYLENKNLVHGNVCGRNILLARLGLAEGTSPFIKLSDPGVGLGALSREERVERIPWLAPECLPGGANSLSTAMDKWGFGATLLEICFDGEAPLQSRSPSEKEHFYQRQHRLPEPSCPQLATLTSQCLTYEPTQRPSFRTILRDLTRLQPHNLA

Turning to `CNc1ncc(C#Cc2ncc(OC)cc2CF)c2cc(NC(=O)C3CC3)ncc12` [Example 963, N-[5-[2-[3-(fluoromethyl)-5-methoxy-2-pyridyl]ethynyl]-8-(methylamino)-2,7-naphthyridin-3-yl]cyclopropanecarboxamide], in test [1], the IC50 was at most 500 nM. Also, the Kd at TYK2 JH2 is at most 100 nM.

On to `CNc1ncc(C#Cc2ccc(COC)cn2)c2cc(NC(=O)C3CC3)ncc12` [Example 964, N-[5-[2-[5-(methoxymethyl)-2-pyridyl]ethynyl]-8-(methylamino)-2,7-naphthyridin-3-yl]cyclopropanecarboxamide], for which, in test [1], the IC50 was at most 500 nM. In addition, the Kd at TYK2 JH2 is at most 100 nM.

`CNc1ncc(C#Cc2ccc(OC)cc2CO)c2cc(NC(=O)C3CC3)ncc12` [Example 965, N-[5-[2-[2-(hydroxymethyl)-4-methoxy-phenyl]ethynyl]-8-(methylamino)-2,7-naphthyridin-3-yl]cyclopropanecarboxamide]: in test [1], the IC50 is at most 500 nM. Also, the Kd on TYK2 JH2 was at most 100 nM.

Regarding `CNc1ncc(C#Cc2ccc(Oc3nccn3C)cc2)c2cc(NC(=O)C3CC3)ncc12` [Example 966, N-(5-((4-((1-methyl-1H-imidazol-2-yl)oxy)phenyl)ethynyl)-8-(methylamino)-2,7-naphthyridin-3-yl)cyclopropanecarboxamide], the IC50 in test [1] is at most 500 nM. In addition, the Kd on TYK2 JH2 was at most 100 nM.

As to `CNc1ncc(C#Cc2ncc(OC)cc2CO)c2cc(NC(=O)C3CC3)ncc12` [Example 967, N-[5-[2-[3-(hydroxymethyl)-5-methoxy-2-pyridyl]ethynyl]-8-(methylamino)-2,7-naphthyridin-3-yl]cyclopropanecarboxamide], the IC50 in test [1] was at most 500 nM. Moreover, the Kd at TYK2 JH2 is at most 100 nM.

Take `CNc1ncc(C#Cc2cc3sc(C)cc3cn2)c2cc(NC(=O)C3CC3)ncc12` [Example 968, N-[8-(methylamino)-5-[2-(2-methylthieno[3,2-c]pyridin-6-yl)ethynyl]-2,7-naphthyridin-3-yl]cyclopropanecarboxamide]: the IC50 in test [1] was at most 500 nM. The Kd on TYK2 JH2 was at most 100 nM.

For the compound `CNc1ncc(C#Cc2ccc(N3CCOCC3)cc2F)c2cc(NC(=O)C3CC3)ncc12` [Example 969, N-[5-[2-(2-fluoro-4-morpholino-phenyl)ethynyl]-8-(methylamino)-2,7-naphthyridin-3-yl]cyclopropanecarboxamide], in test [1], the IC50 is at most 500 nM. Besides, at TYK2 JH2, the Kd is at most 100 nM.

Consider `CNc1ncc(C#Cc2ccc(Oc3cn(C)c(C)n3)cc2)c2cc(NC(=O)C3CC3)ncc12` [Example 970, N-(5-((4-((1,2-dimethyl-1H-imidazol-4-yl)oxy)phenyl)ethynyl)-8-(methylamino)-2,7-naphthyridin-3-yl)cyclopropanecarboxamide], for which the IC50 in test [1] was at most 500 nM. For the same compound, the Kd on TYK2 JH2 is at most 100 nM.

For the compound `CNc1ncc(C#Cc2ccc(Oc3ccn(C)n3)cc2)c2cc(NC(=O)C3CC3)ncc12` [Example 971, N-[8-(methylamino)-5-[2-[4-(1-methylpyrazol-3-yl)oxyphenyl]ethynyl]-2,7-naphthyridin-3-yl]cyclopropanecarboxamide], the IC50 in test [1] was at most 500 nM. Besides, the Kd on TYK2 JH2 was at most 100 nM.

In the case of `CNc1ncc(C#Cc2ccc3c(c2)C(F)(F)C(=O)N3C)c2cc(NC(=O)C3CC3)ncc12` [Example 972, N-[5-[2-(3,3-difluoro-1-methyl-2-oxo-indolin-5-yl)ethynyl]-8-(methylamino)-2,7-naphthyridin-3-yl]cyclopropanecarboxamide], the IC50 in test [1] was at most 500 nM. Further, the Kd at TYK2 JH2 is at most 100 nM.

Consider `CNc1ncc(C#Cc2cc3c(cc2F)OCCO3)c2cc(NC(=O)C3CC3)ncc12` [Example 973, N-[5-[2-(6-fluoro-2,3-dihydro-1,4-benzodioxin-7-yl)ethynyl]-8-(methylamino)-2,7-naphthyridin-3-yl]cyclopropanecarboxamide], for which, in test [1], the IC50 was at most 500 nM. Further, the Kd at TYK2 JH2 is at most 100 nM.

On to `CNc1ncc(C#Cc2ccc3c(c2)CCC(CF)O3)c2cc(NC(=O)C3CC3)ncc12` (stereo not drawn) [Example 974, N-[5-[2-[2-(fluoromethyl)chroman-6-yl]ethynyl]-8-(methylamino)-2,7-naphthyridin-3-yl]cyclopropanecarboxamide], for which the IC50 in test [1] was at most 500 nM. On TYK2 JH2, the Kd was at most 100 nM.

As to `CNc1ncc(C#Cc2cccc3c2SCCC3=O)c2cc(NC(=O)C3CC3)ncc12` [Example 975, N-[8-(methylamino)-5-[2-(4-oxothiochroman-8-yl)ethynyl]-2,7-naphthyridin-3-yl]cyclopropanecarboxamide], the IC50 in test [1] was at most 500 nM. The Kd at TYK2 JH2 is at most 100 nM.

`CNc1ncc(C#Cc2ncc(OC)cc2C(F)F)c2cc(NC(=O)C3CC3)ncc12` [Example 976, N-(5-((3-(difluoromethyl)-5-methoxypyridin-2-yl)ethynyl)-8-(methylamino)-2,7-naphthyridin-3-yl)cyclopropanecarboxamide]: the IC50 in test [1] was at most 500 nM. At TYK2 JH2, the Kd is at most 100 nM.

As for `CNc1ncc(C#Cc2ccc3c(c2)OCC(C)O3)c2cc(NC(=O)C3CC3)ncc12` (stereo not drawn) [Example 977, N-[8-(methylamino)-5-[2-(2-methyl-2,3-dihydro-1,4-benzodioxin-6-yl)ethynyl]-2,7-naphthyridin-3-yl]cyclopropanecarboxamide], the IC50 in test [1] was at most 500 nM. Besides, at TYK2 JH2, the Kd was at most 100 nM.

Consider `CNc1ncc(C#Cc2ccc3c(c2)C=CC(C)(C)O3)c2cc(NC(=O)C3CC3)ncc12` [Example 978, N-[5-[2-(2,2-dimethylchromen-6-yl)ethynyl]-8-(methylamino)-2,7-naphthyridin-3-yl]cyclopropanecarboxamide], for which the IC50 in test [1] was at most 500 nM. Also, the Kd on TYK2 JH2 is at most 100 nM.

As to `CNc1ncc(C#Cc2ccnc(F)c2)c2cc(NC(=O)C3CC3)ncc12` [Example 979, N-[5-[2-(2-fluoro-4-pyridyl)ethynyl]-8-(methylamino)-2,7-naphthyridin-3-yl]cyclopropanecarboxamide], the IC50 in test [1] was at most 500 nM. Further, on TYK2 JH2, the Kd is at most 100 nM.

Turning to `CNc1ncc(C#Cc2ccc(F)cn2)c2cc(NC(=O)C3CC3)ncc12` [Example 980, N-[5-[2-(5-fluoro-2-pyridyl)ethynyl]-8-(methylamino)-2,7-naphthyridin-3-yl]cyclopropanecarboxamide], the IC50 in test [1] was at most 500 nM. For the same compound, the Kd at TYK2 JH2 was at most 100 nM.

Regarding `CNc1ncc(C#Cc2ccc3c(c2)CCC(CO)O3)c2cc(NC(=O)C3CC3)ncc12` (stereo not drawn) [Example 981], the IC50 in test [1] was at most 500 nM. Moreover, the Kd at TYK2 JH2 was at most 100 nM.

For the compound `CNc1ncc(C#Cc2nccc3ccsc23)c2cc(NC(=O)C3CC3)ncc12` [Example 984, N-[8-(methylamino)-5-(2-thieno[2,3-c]pyridin-7-ylethynyl)-2,7-naphthyridin-3-yl]cyclopropanecarboxamide], the IC50 in test [1] is at most 500 nM. Further, at TYK2 JH2, the Kd is at most 100 nM.

For `CNc1ncc(C#Cc2ccncc2Cl)c2cc(NC(=O)C3CC3)ncc12` [Example 985, N-[5-[2-(3-chloro-4-pyridyl)ethynyl]-8-(methylamino)-2,7-naphthyridin-3-yl]cyclopropanecarboxamide], the IC50 in test [1] was at most 500 nM. The Kd on TYK2 JH2 is at most 100 nM.

Take `CNc1ncc(C#Cc2ccc(Oc3cn(C)cn3)cc2)c2cc(NC(=O)C3CC3)ncc12` [Example 986, N-[8-(methylamino)-5-[2-[4-(1-methylimidazol-4-yl)oxyphenyl]ethynyl]-2,7-naphthyridin-3-yl]cyclopropanecarobxmaide]: the IC50 in test [1] was at most 500 nM. In addition, the Kd at TYK2 JH2 is at most 100 nM.

For `CNc1ncc(C#Cc2ccc3c(c2)CCC(COC)O3)c2cc(NC(=O)C3CC3)ncc12` (stereo not drawn) [Example 987, N-[5-[2-[2-(methoxymethyl)chroman-6-yl]ethynyl]-8-(methylamino)-2,7-naphthyridin-3-yl]cyclopropanecarobxamide], the IC50 in test [1] is at most 500 nM. The Kd at TYK2 JH2 was at most 100 nM.

Take `CNc1ncc(C#Cc2cn(C)cn2)c2cc(NC(=O)C3CC3)ncc12` [Example 990, N-[8-(methylamino)-5-[2-(1-methylimidazol-4-yl)ethynyl]-2,7-naphthyridin-3-yl]cyclopropanecarboxamide]: the IC50 in test [1] was at most 500 nM. Also, the Kd on TYK2 JH2 is at most 100 nM.

Turning to `CNc1ncc(C#Cc2ccncc2F)c2cc(NC(=O)C3CC3)ncc12` [Example 991, N-[5-[2-(3-fluoro-4-pyridyl)ethynyl]-8-(methylamino)-2,7-naphthyridin-3-yl]cyclopropanecarboxamide], in test [1], the IC50 was at most 500 nM. On TYK2 JH2, the Kd was at most 100 nM.

As to `CNc1ncc(C#Cc2ccnc(Cl)c2)c2cc(NC(=O)C3CC3)ncc12` [Example 992, N-[5-[2-(2-chloro-4-pyridyl)ethynyl]-8-(methylamino)-2,7-naphthyridin-3-yl]cyclopropanecarboxamide], in test [1], the IC50 is at most 500 nM. The Kd on TYK2 JH2 was at most 100 nM.

`CNc1ncc(C#Cc2ccc(OCC(F)(F)F)cn2)c2cc(NC(=O)C3CC3)ncc12` [Example 993, N-[8-(methylamino)-5-[2-[5-(2,2,2-trifluoroethoxy)-2-pyridyl]ethynyl]-2,7-naphthyridin-3-yl]cyclopropanecarboxamide]: in test [1], the IC50 is at most 500 nM. Further, the Kd at TYK2 JH2 was at most 100 nM.
